Reference: ChEMBL document CHEMBL4359811, “Development of Potent and Selective Pyrazolopyrimidine IRAK4 Inhibitors” (J Med Chem, 2019)
pIC50, pKi: −log10 of the molar value. In brackets after ≈: the same amount, converted by molar mass.

Columns and labels:
[1] = target: T1, Interleukin-1 receptor-associated kinase 4 (Homo sapiens, UniProt Q9NWZ3); assay: Inhibition of recombinant IRAK4 (unknown origin) using KKARFSRFAGSSPSQSSMVAR as substrate in presence of [gamma33P]-ATP by liquid scintillation counting method
T1 sequence (Q9NWZ3 whole entry): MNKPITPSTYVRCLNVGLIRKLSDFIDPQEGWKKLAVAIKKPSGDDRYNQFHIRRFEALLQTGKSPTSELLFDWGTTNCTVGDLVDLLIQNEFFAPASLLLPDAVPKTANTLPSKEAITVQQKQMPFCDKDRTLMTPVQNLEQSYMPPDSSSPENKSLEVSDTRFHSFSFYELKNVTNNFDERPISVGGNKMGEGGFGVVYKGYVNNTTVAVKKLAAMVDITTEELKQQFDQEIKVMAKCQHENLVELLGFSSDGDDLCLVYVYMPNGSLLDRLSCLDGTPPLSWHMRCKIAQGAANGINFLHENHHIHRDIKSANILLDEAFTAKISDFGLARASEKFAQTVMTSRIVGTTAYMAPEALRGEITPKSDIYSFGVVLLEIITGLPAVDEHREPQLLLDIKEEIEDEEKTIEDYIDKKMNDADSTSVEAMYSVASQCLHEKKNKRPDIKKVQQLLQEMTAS

[2] = target: T1, Interleukin-1 receptor-associated kinase 4; assay: Inhibition of human recombinant full length His6-tagged IRAK4 expressed in baculovirus expression system using H-KKARFSRFAGSSPSQSSMVAR as substrate incubated for 90 mins by fluorescence polarisation assay
[3] = target: T1, Interleukin-1 receptor-associated kinase 4; assay: Inhibition of IRAK4 in human THP1-Xblue-MD2-CD14 cells assessed as reduction in LPS-induced NFkappaB transcription by measuring alkaline phosphatase level preincubated for 1 hr followed by LPS stimulation and measured after 20 hrs by quanti-blue reagent based reporter assay
[4] = Kinetic aqueous solubility of the compound in PBS buffer at pH 7.4 incubated for 24 hrs under shaking condition by LC-CLND assay; type: physicochemical; details: PBS buffer, pH 7.4; read-out: Kinetic_solubility
[5] = Apparent permeability from apical to basolateral side in MDCK cells at 10 uM incubated for 180 mins and measured up to 180 min by LC-MS/MS analysis; type: ADME, cell-based, Canis lupus familiaris; details: dog
[6] = target: Interleukin-1 receptor-associated kinase 1 (Homo sapiens, UniProt P51617); assay: Inhibition of human recombinant full length N-terminal His6-tagged IRAK1 (Argl94 to Ser712 residues) expressed in insect cells using H-KKARFSRFAGSSPSQSSMVAR as substrate incubated for 60 mins by fluorescence polarisation assay
Chain of Interleukin-1 receptor-associated kinase 1 (P51617 whole entry): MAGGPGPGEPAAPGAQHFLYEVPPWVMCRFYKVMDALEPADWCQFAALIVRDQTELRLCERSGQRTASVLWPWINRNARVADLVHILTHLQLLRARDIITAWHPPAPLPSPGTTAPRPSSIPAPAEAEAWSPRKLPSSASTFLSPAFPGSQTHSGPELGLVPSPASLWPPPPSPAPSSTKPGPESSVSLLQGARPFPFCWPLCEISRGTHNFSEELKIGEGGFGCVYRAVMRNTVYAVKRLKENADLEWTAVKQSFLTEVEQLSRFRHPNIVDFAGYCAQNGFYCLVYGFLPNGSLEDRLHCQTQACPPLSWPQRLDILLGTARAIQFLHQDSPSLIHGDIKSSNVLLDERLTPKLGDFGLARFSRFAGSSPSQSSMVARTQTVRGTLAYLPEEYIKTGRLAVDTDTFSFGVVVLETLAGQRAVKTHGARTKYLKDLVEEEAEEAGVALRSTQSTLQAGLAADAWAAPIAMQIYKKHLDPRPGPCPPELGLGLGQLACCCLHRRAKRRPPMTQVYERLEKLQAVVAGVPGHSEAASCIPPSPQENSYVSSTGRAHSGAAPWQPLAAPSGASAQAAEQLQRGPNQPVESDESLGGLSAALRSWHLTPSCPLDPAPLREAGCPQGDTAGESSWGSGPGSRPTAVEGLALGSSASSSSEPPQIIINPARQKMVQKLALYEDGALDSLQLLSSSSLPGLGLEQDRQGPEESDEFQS

[7] = Protein binding in human plasma at 5 uM incubated for 4 hrs by LC-MS/MS analysis; type: ADME, cell-free; details: read-out: PPB (converted)
[8] = Cmax in mouse at 5 mg/kg, po; type: ADME, organism-based; design: dose 5 mg/kg, route oral; details: in vivo, BLD = below limit of detection
[9] = Protein binding in mouse plasma at 5 uM incubated for 4 hrs by LC-MS/MS analysis; type: ADME, cell-free; details: read-out: PPB (converted)
[10] = Blood clearance in mouse at 1 mg/kg, iv; type: ADME, organism-based; details: whole blood
[11] = Volume of distribution at steady state in mouse at 1 mg/kg, iv; type: ADME, organism-based; details: in vivo, read-out: Vdss
[12] = AUC (infinity) in mouse at 5 mg/kg, po; type: ADME, organism-based; design: dose 5 mg/kg, route oral, time infinity; details: in vivo, BLD = below limit of detection
[13] = Oral bioavailability in mouse at 5 mg/kg; type: ADME, organism-based; details: in vivo, BLD = below limit of detection

| SMILES | pKi [2] | pIC50 [3] | solubility kinetic at 24 h [4] | Papp A→B at 3 h, 10 µM [5] | pKi [6] | further results |
| --- | --- | --- | --- | --- | --- | --- |
| COc1cc2cccnc2cc1NC(=O)c1cnn2cccnc12 |  |  |  |  |  | pKi [1]: < 4.52 |
| CC1(C)Cc2cc(NC(=O)c3cnn4cccnc34)c(N3CCN(CC(N)=O)CC3)cc2O1 | 8.68 | 7.60 | 10 µM (≈ 4.5 µg/mL) | 2.6 ×10⁻⁶ cm/s |  |  |
| CC1(C)Cc2cc(NC(=O)c3cnn4cc(C(F)F)cnc34)c(N3CCOCC3)cc2O1 | 7.51 | 5.92 | 2.5 µM (≈ 1.11 µg/mL) |  |  |  |
| CC1(C)Cc2cc(NC(=O)c3cnn4cccnc34)c(N3CCNCC3)cc2O1 |  | 7.25 | 110 µM (≈ 43.2 µg/mL) |  |  |  |
| CC1(C)Cc2cc(NC(=O)c3cnn4cccnc34)c(N3CCN(CCO)CC3)cc2O1 |  | 7.01 | 120 µM (≈ 52.4 µg/mL) | 8.2 ×10⁻⁶ cm/s |  |  |
| CC1(C)Cc2cc(NC(=O)c3cnn4cc(CO)cnc34)c(N3CCOCC3)cc2O1 |  | 7.18 | 15 µM (≈ 6.35 µg/mL) | 18 ×10⁻⁶ cm/s |  |  |
| C[C@@]1(CO)Cc2cc(NC(=O)c3cnn4cccnc34)c(N3CCOCC3)cc2O1 |  |  | 10 µM (≈ 4.09 µg/mL) | 27 ×10⁻⁶ cm/s |  |  |
| O=C(Nc1cc2cccnc2cc1N1CCCCC1)c1cnn2cccnc12 |  |  |  |  |  | pKi [1]: 8.10 |
| O=C(Nc1cc2ccc(N3CCOCC3)nc2cc1N1CCCCC1)c1cnn2cccnc12 | 6.54 | 5.89 |  |  | 5.33 |  |
| CN(C)c1ccc2cc(NC(=O)c3cnn4cccnc34)c(N3CCCCC3)cc2n1 | 7.59 | 7.01 |  |  | 6.30 |  |
| CC1(C)Cc2cc(NC(=O)c3cnn4cccnc34)c(N3CCC(C(N)=O)CC3)cc2O1 |  | 7.28 | 7.1 µM (≈ 3.08 µg/mL) |  |  |  |
| CNC(=O)CN1CCN(c2cc3c(cc2NC(=O)c2cnn4cccnc24)CC(C)(C)O3)CC1 | 8.46 | 7.22 | 23 µM (≈ 10.7 µg/mL) | 13 ×10⁻⁶ cm/s |  |  |
| O=C(Nc1cc2[nH]cnc2cc1N1CCC(CO)CC1)c1cnn2cccnc12 | 8.17 | 6.48 |  |  | < 5.24 |  |
| O=C(Nc1cc2sc(N3CCOCC3)nc2cc1N1CCC(CO)CC1)c1cnn2cccnc12 | 9.30 | 8.10 |  | 8.4 ×10⁻⁶ cm/s | 7.62 | fraction unbound at 4 h, 5 µM [7]: 0.02; Cmax [8]: Bld; fraction unbound at 4 h, 5 µM [9]: 0.01; clearance [10]: 18 mL/min/kg; Vd [11]: 0.4 L/kg; AUC [12]: Bld; F [13]: Bld |
| CC1(C)Cc2cc(NC(=O)c3cnn4cccnc34)c(N3CCCC(O)CC3)cc2O1 (configuration not stated) |  | 6.89 | 25 µM (≈ 10.5 µg/mL) |  |  |  |
| CC1(C)Cc2cc(NC(=O)c3cnn4c(O)ccnc34)c(N3CCOCC3)cc2O1 | < 5.08 | < 4.70 | 77 µM (≈ 31.5 µg/mL) |  |  |  |
| COc1cc2ncccc2cc1NC(=O)c1cnn2cccnc12 | 7.28 | 6.43 |  |  | 5.55 |  |
| CC(C)(O)[C@]1(C)Cc2cc(NC(=O)c3cnn4cccnc34)c(N3CCOCC3)cc2O1 | 8.14 | 6.77 | 150 µM (≈ 65.6 µg/mL) | 21 ×10⁻⁶ cm/s |  |  |
| O=C(Nc1cc2[nH]c(N3CCOCC3)nc2cc1N1CCC(CO)CC1)c1cnn2cccnc12 | 8.77 | 6.60 |  |  | < 5.26 |  |
| CC1(C)Cc2cc(NC(=O)c3cnn4cccnc34)c(N3CCC(C(O)C(F)(F)F)CC3)cc2O1 (configuration not stated) |  | 7.25 | 1 µM (≈ 0.489 µg/mL) |  |  |  |
